# Several values for one entry are separate records, joined by “and”; a condition that tells them apart may be missing. Identical values can stand only once.
# Tested on: BDF1 mice, Adenocarcinoma 755 s.c., tumor weight T/C
# Test: NCI In Vivo Anticancer Drug Screen. Data for tumor model Adenocarcinoma 755 (subcutaneous) in B6D2F1 (BDF1) mice
# Conditions: endpoint: mean tumor weight, schedule: Q01DX011 (ip), higher = larger tumour
# Summary of the method: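 Values express treated (T) relative to vehicle-dosed control (C) animals, based on survival or tumour size measured after compound treatment of mice bearing a transplanted tumour.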
# [1] = dose: 150.0 mg/kg/injection, vehicle: carboxymethylcellulose (CMC)
# [2] = dose: 15.0 mg/kg/injection, vehicle: methylcellulose (MC)
# [3] = dose: 3.0 mg/kg/injection, vehicle: methylcellulose (MC)
# [4] = dose: 31.0 mg/kg/injection, vehicle: methylcellulose (MC)
# [5] = dose: 62.0 mg/kg/injection, vehicle: methylcellulose (MC)
# [6] = dose: 125.0 mg/kg/injection, vehicle: methylcellulose (MC)
# [7] = dose: 1.5 mg/kg/injection, vehicle: carboxymethylcellulose (CMC)
smiles,measurement,setting,value
O=C(Nc1ccc(NC(=O)Nc2cccc(C3=NCCN3)c2)cc1)Nc1cccc(C2=NCCN2)c1,T/C,"dose: 18.75 mg/kg/injection, vehicle: carboxymethylcellulose (CMC)",85 % of control
same,T/C,"dose: 37.5 mg/kg/injection, vehicle: carboxymethylcellulose (CMC)",73 % of control
same,T/C,"dose: 75.0 mg/kg/injection, vehicle: carboxymethylcellulose (CMC)",73 % of control
same,T/C,[1],112 % of control
C=CC(O)CN1CC1=C (stereo not drawn) (tested in a mixture with another compound),T/C,"dose: 1.9 mg/kg/injection, vehicle: methylcellulose (MC)",95 % of control
same,T/C,"dose: 3.75 mg/kg/injection, vehicle: methylcellulose (MC)",121 % of control
same,T/C,"dose: 7.5 mg/kg/injection, vehicle: methylcellulose (MC)",106 % of control
same,T/C,[2],49 % of control
CC(C)N(C(C)C)C(C)CCNc1c2ccccc2nc2cc(Cl)ccc12 (stereo not drawn),T/C,[3],64 % of control
same,T/C,"dose: 6.0 mg/kg/injection, vehicle: methylcellulose (MC)",79 % of control
same,T/C,"dose: 12.0 mg/kg/injection, vehicle: methylcellulose (MC)",72 % of control
O=[N+]([O-])c1ccc2ncccc2c1,T/C,"dose: 31.2 mg/kg/injection, vehicle: other",83 % of control
same,T/C,"dose: 62.5 mg/kg/injection, vehicle: other",52 % of control
CSc1ncc(Br)c(Nc2ccc(Cl)c(Cl)c2)n1,T/C,[2],57 % of control
same,T/C,[4],66 % of control
same,T/C,[5],78 % of control
same,T/C,[6],67 % of control
same,T/C,"dose: 250.0 mg/kg/injection, vehicle: methylcellulose (MC)",62 % of control
CC(Nc1ncnc2nc[nH]c12)C(=O)O (stereo not drawn),T/C,"dose: 25.0 mg/kg/injection, vehicle: saline",114 % of control
same,T/C,"dose: 75.0 mg/kg/injection, vehicle: saline",86 % of control
same,T/C,"dose: 225.0 mg/kg/injection, vehicle: saline",20 % of control
CS(=O)(=O)OCCCl,T/C,"dose: 20.88 mg/kg/injection, vehicle: carboxymethylcellulose (CMC)",80 % of control
same,T/C,"dose: 28.73 mg/kg/injection, vehicle: carboxymethylcellulose (CMC)",80 % of control
same,T/C,"dose: 40.25 mg/kg/injection, vehicle: carboxymethylcellulose (CMC)",52 % of control
same,T/C,"dose: 41.75 mg/kg/injection, vehicle: carboxymethylcellulose (CMC)",117 % of control
same,T/C,"dose: 83.5 mg/kg/injection, vehicle: carboxymethylcellulose (CMC)",97 % of control
same,T/C,"dose: 114.9 mg/kg/injection, vehicle: carboxymethylcellulose (CMC)",88 % of control and 103 % of control
same,T/C,"dose: 130.0 mg/kg/injection, vehicle: carboxymethylcellulose (CMC)",54 % of control
same,T/C,"dose: 140.0 mg/kg/injection, vehicle: carboxymethylcellulose (CMC)",21 % of control
same,T/C,[1],11 % of control
Cc1cc(N(CCCl)CCCl)ccc1N=Nc1ccccc1C(=O)O,T/C,"dose: 0.44 mg/kg/injection, vehicle: carboxymethylcellulose (CMC)",115 % of control
same,T/C,"dose: 0.87 mg/kg/injection, vehicle: carboxymethylcellulose (CMC)",39 % of control
same,T/C,"dose: 1.75 mg/kg/injection, vehicle: carboxymethylcellulose (CMC)",53 % of control
same,T/C,"dose: 3.5 mg/kg/injection, vehicle: carboxymethylcellulose (CMC)",20 % of control
Nc1nc(=S)c2ncn(C3OC(CO)C(O)C3O)c2[nH]1 (stereo not drawn),T/C,"dose: 0.03 mg/kg/injection, vehicle: carboxymethylcellulose (CMC)",43 % of control
same,T/C,"dose: 0.07 mg/kg/injection, vehicle: carboxymethylcellulose (CMC)",90 % of control
same,T/C,"dose: 0.13 mg/kg/injection, vehicle: carboxymethylcellulose (CMC)",81 % of control
same,T/C,"dose: 0.5 mg/kg/injection, vehicle: carboxymethylcellulose (CMC)",29 % of control and 37 % of control
same,T/C,"dose: 1.0 mg/kg/injection, vehicle: carboxymethylcellulose (CMC)",6 % of control and 7 % of control
same,T/C,[7],4 % of control
same,T/C,"dose: 1.5 mg/kg/injection, vehicle: methylcellulose (MC)",2 % of control
same,T/C,"dose: 2.0 mg/kg/injection, vehicle: carboxymethylcellulose (CMC)",4 % of control
same,T/C,"dose: 3.0 mg/kg/injection, vehicle: carboxymethylcellulose (CMC)",3 % of control
same,T/C,[3],1 % of control
Nc1ncnc2[nH]ncc12,T/C,"dose: 0.94 mg/kg/injection, vehicle: carboxymethylcellulose (CMC)",78 % of control
same,T/C,"dose: 1.1 mg/kg/injection, vehicle: carboxymethylcellulose (CMC)",69 % of control
same,T/C,"dose: 1.41 mg/kg/injection, vehicle: carboxymethylcellulose (CMC)",73 % of control
same,T/C,[7],67 % of control
same,T/C,"dose: 1.88 mg/kg/injection, vehicle: carboxymethylcellulose (CMC)",54 % of control and 61 % of control
same,T/C,"dose: 2.5 mg/kg/injection, vehicle: carboxymethylcellulose (CMC)",32 % of control
same,T/C,"dose: 3.1 mg/kg/injection, vehicle: carboxymethylcellulose (CMC)",74 % of control
same,T/C,"dose: 3.75 mg/kg/injection, vehicle: carboxymethylcellulose (CMC)",31 % of control and 36 % of control
same,T/C,"dose: 4.52 mg/kg/injection, vehicle: carboxymethylcellulose (CMC)",108 % of control
same,T/C,"dose: 5.65 mg/kg/injection, vehicle: carboxymethylcellulose (CMC)",50 % of control and 63 % of control
same,T/C,"dose: 6.2 mg/kg/injection, vehicle: carboxymethylcellulose (CMC)",6 % of control
same,T/C,"dose: 7.5 mg/kg/injection, vehicle: carboxymethylcellulose (CMC)",5 % of control and 6 % of control
same,T/C,"dose: 7.53 mg/kg/injection, vehicle: carboxymethylcellulose (CMC)",36 % of control
same,T/C,"dose: 11.3 mg/kg/injection, vehicle: carboxymethylcellulose (CMC)",31 % of control
O=P(OCC1OC(n2cnc3c(=S)nc[nH]c32)C(O)C1O)(Oc1ccccc1)Oc1ccccc1 (stereo not drawn),T/C,"dose: 4.0 mg/kg/injection, vehicle: methylcellulose (MC)",89 % of control
same,T/C,"dose: 8.0 mg/kg/injection, vehicle: methylcellulose (MC)",88 % of control
same,T/C,"dose: 16.0 mg/kg/injection, vehicle: methylcellulose (MC)",41 % of control
same,T/C,[4],39 % of control
same,T/C,[5],36 % of control
same,T/C,[6],34 % of control
C[C@]12CC[C@H](O)C[C@H]1CC[C@@H]1[C@@H]2CC[C@]2(C)[C@@H](C3=CC(=O)OC3)CC[C@]12O,T/C,"dose: 5.0 mg/kg/injection, vehicle: carboxymethylcellulose (CMC)",72 % of control
same,T/C,"dose: 10.0 mg/kg/injection, vehicle: carboxymethylcellulose (CMC)",67 % of control
same,T/C,"dose: 25.0 mg/kg/injection, vehicle: carboxymethylcellulose (CMC)",49 % of control
Nc1nc2nc(/N=N/SCCC(=O)O)[nH]c2c(=O)[nH]1,T/C,"dose: 37.5 mg/kg/injection, vehicle: methylcellulose (MC)",54 % of control
same,T/C,"dose: 75.0 mg/kg/injection, vehicle: methylcellulose (MC)",45 % of control
COc1cc(-c2ccc(N=Nc3c(O)ccc4ccccc34)c(OC)c2)ccc1N=Nc1ccc2c(S(=O)(=O)O)cc(S(=O)(=O)O)c(N)c2c1O,T/C,"dose: 62.0 mg/kg/injection, vehicle: carboxymethylcellulose (CMC)",63 % of control and 75 % of control
same,T/C,"dose: 112.0 mg/kg/injection, vehicle: carboxymethylcellulose (CMC)",60 % of control and 79 % of control
same,T/C,"dose: 225.0 mg/kg/injection, vehicle: carboxymethylcellulose (CMC)",39 % of control and 64 % of control
same,T/C,"dose: 450.0 mg/kg/injection, vehicle: carboxymethylcellulose (CMC)",29 % of control
Nc1nc(SCc2ccc([N+](=O)[O-])cc2)c2[nH]cnc2n1,T/C,"dose: 600.0 mg/kg/injection, vehicle: carboxymethylcellulose (CMC)",10 % of control
same,T/C,"dose: 750.0 mg/kg/injection, vehicle: carboxymethylcellulose (CMC)",10 % of control
same,T/C,"dose: 800.0 mg/kg/injection, vehicle: carboxymethylcellulose (CMC)",8 % of control
same,T/C,"dose: 900.0 mg/kg/injection, vehicle: carboxymethylcellulose (CMC)",1 % of control and 5 % of control
same,T/C,"dose: 1000.0 mg/kg/injection, vehicle: carboxymethylcellulose (CMC)",6 % of control

# From PubChem BioAssay AID180 (DTP/NCI, 2004)
